Like-named read-outs stand apart in the source and are kept apart here.
How the values were obtained:
[1] = test system: genotype 1b (Con-1) HCV replicon; experiment: HCV Replicon Luciferase Assay; type: cell-based; settings: Hepatitis C virus, 72 h, genotype 1b HCV replicon, Huh-7, Renilla luciferase, 3 days
Experimental: Cell Lines. The cell lines used to evaluate compounds consist of a human hepatocyte derived cell line (Huh-7) that constitutively expresses a genotype 1b (Con-1) HCV replicon or a genotype 1b (Con-1) HCV replicon with an asparagine replacing the cysteine at amino acid 316, or a genotype 2a (JFH-1) replicon, containing a Renilla luciferase reporter gene. These cells were maintained in Dulbecco's modified Eagle medium (DMEM) containing 10% FBS, 100 U/mL penicillin/streptomycin and 1.0 mg/mL G418.
HCV Replicon Luciferase Assay. To evaluate compound efficacy, titrated compounds were transferred to sterile 384-well tissue culture treated plates, and the plates were seeded with HCV replicon cells (50 μL at a density of 2.4×10^3 cells/well) in DMEM containing 4% FBS (final DMSO concentration at 0.5%). After 3 days incubation at 37° C., cells were analyzed for Renilla Luciferase activity using the EnduRen substrate (Promega cat #E6485) according to the manufacturer's directions. Briefly, the EnduRen substrate was diluted in DMEM and then added to the plates to a final concentration of 7.5 μM. The plates were incubated for at least 1 h at 37° C. then read on a Viewlux Imager (PerkinElmer) using a luminescence program. The 50% effective concentration (EC50) was calculated using the four-parameter logistic formula noted above.

HCV = settings: single agent: transient decrease then rebound; cited from earlier work
[2] = extended dosing of combination regimens with interferon and ribavirin; cited from earlier work

## CNC(=O)c1c(-c2ccc(F)cc2)oc2cc(N(CCF)S(C)(=O)=O)c(-c3cccc(C(=O)N4CCn5cc(C(F)(F)F)nc5C4)c3)cc12 [Compound 1001]
[1]; read-out: EC50 1b (class)
  EC50: < 0.1 µM
[1]; read-out: EC50 (uM) 1b
  EC50: 0.0349 µM

## CNC(=O)c1c(-c2ccc(F)cc2)oc2cc(N(CCF)S(C)(=O)=O)c(-c3cccc(C(=O)N4CCn5c(nnc5C(F)(F)F)C4)c3)cc12 [Compound 1002]
[1]; read-out: EC50 1b (class)
  EC50: 0.1 to 1 µM

## CNC(=O)c1c(-c2ccc(F)cc2)oc2cc(N(CCF)S(C)(=O)=O)c(-c3cccc(C(=O)N4CCc5nc[nH]c5C4)c3)cc12 [Compound 1003]
[1]; read-out: EC50 1b (class)
  EC50: > 1 µM

## CNC(=O)c1c(-c2ccc(F)cc2)oc2cc(N(CCF)S(C)(=O)=O)c(-c3cccc(C(=O)N4CCc5[nH]ncc5C4)c3)cc12 [Compound 1004]
[1]; read-out: EC50 1b (class)
  EC50: 0.1 to 1 µM
[1]; read-out: EC50 (uM) 1b
  EC50: 0.975 µM

## CNC(=O)c1c(-c2ccc(F)cc2)oc2cc(N(CCF)S(C)(=O)=O)c(-c3cccc(C(=O)N4CCn5cccc5C4c4cccnc4)c3)cc12 (stereo not drawn) [Compound 1005]
[1]; read-out: EC50 1b (class)
  EC50: < 0.1 µM

## CNC(=O)c1c(-c2ccc(F)cc2)oc2cc(N(CCF)S(C)(=O)=O)c(-c3cccc(C(=O)N4CCC5CC54)c3)cc12 (stereo not drawn) [Compound 1006]
[1]; read-out: EC50 1b (class)
  EC50: < 0.1 µM

## CNC(=O)c1c(-c2ccc(F)cc2)oc2cc(N(CCF)S(C)(=O)=O)c(-c3cccc(C(=O)N4[C@H](C(N)=O)C[C@@H]5C[C@@H]54)c3)cc12 [Compound 1007]
[1]; read-out: EC50 1b (class)
  EC50: > 1 µM

## CNC(=O)c1c(-c2ccc(F)cc2)oc2cc(N(CCF)S(C)(=O)=O)c(-c3cccc(C(=O)N4CCC5(CCN(C(=O)OC(C)(C)C)C5)C4)c3)cc12 (stereo not drawn) [Compound 1008]
[1]; read-out: EC50 1b (class)
  EC50: < 0.1 µM
[1]; read-out: EC50 (uM) 1b
  EC50: 0.0964 µM

## CNC(=O)c1c(-c2ccc(F)cc2)oc2cc(N(CCF)S(C)(=O)=O)c(-c3cccc(C(=O)N4CC5CCN(C(=O)OC(C)(C)C)C5C4)c3)cc12 (stereo not drawn) [Compound 1009]
[1]; read-out: EC50 1b (class)
  EC50: 0.1 to 1 µM

## CNC(=O)c1c(-c2ccc(F)cc2)oc2cc(N(CCF)S(C)(=O)=O)c(-c3cccc(C(=O)N4CC5CCN(C(=O)OC(C)(C)C)CC5C4)c3)cc12 (stereo not drawn) [Compound 1010]
[1]; read-out: EC50 1b (class)
  EC50: < 0.1 µM

## CNC(=O)c1c(-c2ccc(F)cc2)oc2cc(N(CCO)S(C)(=O)=O)c(C3CC3)cc12 [HCV-796]
HCV
  HCV RNA levels in patients: reduce HCV RNA levels
[2]
  hepatic toxicity: hepatic toxicity
